In test [1] the target is T1, Growth factor receptor-bound protein 2 (Homo sapiens, UniProt P62993). Kind of test: Inhibitory concentration for human growth factor receptor bound protein 2.
Target sequence in this assay (P62993 whole entry): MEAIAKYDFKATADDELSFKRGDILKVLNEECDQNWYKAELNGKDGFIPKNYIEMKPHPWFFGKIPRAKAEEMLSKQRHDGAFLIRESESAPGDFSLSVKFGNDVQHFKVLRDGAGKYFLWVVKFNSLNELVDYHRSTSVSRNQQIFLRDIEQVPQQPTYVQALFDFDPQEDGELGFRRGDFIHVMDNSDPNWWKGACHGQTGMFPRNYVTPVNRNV
The target in test [2] is T1, Growth factor receptor-bound protein 2. As to the kind of experiment: Apparent dissociation constant for human growth factor receptor bound protein 2.
Target sequence in this assay (P62993 whole entry): as above
Test [3] has the same target. Kind of test: First order rate constant (kon) for human growth factor receptor bound protein 2.
Target sequence in this assay (P62993 whole entry, looked up): as the sequence (P62993 whole entry) above
For test [4] the target is unchanged. As to the kind of experiment: First order rate constant (koff) for human growth factor receptor bound protein 2.
Target sequence in this assay (P62993 whole entry, looked up): as the sequence (P62993 whole entry) above

The term IC50 denotes the concentration that gives 50% inhibition. A high value points to weaker potency in that assay. The term kon denotes a measure of how fast the partners come together. Consider `NC(=O)C[C@H](NC(=O)C1(NC(=O)[C@@H](CC(=O)O)Cc2ccc(CP(=O)(O)O)cc2)CCCCC1)C(=O)NCCNc1ccc([N+](=O)[O-])c2nonc12`, for which, in test [1], half-maximal inhibition (IC50) required 167 nM. For the same compound, in test [2], the Kd worked out at 119 nM. Moreover, in test [3], the kon is 1.18e+06 1/M1/S. For the same compound, in test [4], the k off stood at 0.14 s⁻¹.

In the case of `NC(=O)C[C@H](NC(=O)C1(NC(=O)[C@@H](CC(=O)O)Cc2ccc(CP(=O)(O)O)cc2)CCCCC1)C(=O)NCCCc1cccc2ccccc12`, the Kd in test [2] was found to be 23.8 nM. The kon in test [3] is 4.18e+06 1/M1/S. Besides, the k off in test [4] worked out at 0.0991 s⁻¹.
